Where two headings read alike, the source gives them in different places.
Experiment: PK after subcutaneous administration of solutions in rats
Format: in vivo, Wistar Han rat
Settings: Wistar Han, plasma, rat, SC 50 mg/kg; for AUC(0-t) / concentration at 28 d / concentration at 84 d / Cmax / concentration at 98 d / concentration at 168 d / concentration at 1 h / concentration at 3 h / concentration at 8 h / concentration at 24 h / concentration at 48 h / concentration at 72 h / concentration at 96 h / concentration at 168 h / concentration at 336 h / concentration at 504 h / concentration at 672 h / concentration at 840 h / concentration at 1008 h / concentration at 1344 h / concentration at 1680 h: sc, 50 mg/kg; for concentration at 28 d: read-out: C28d; for concentration at 84 d: read-out: C84d; for concentration at 98 d: read-out: C98d; for concentration at 1 h / concentration at 3 h / concentration at 8 h / concentration at 24 h / concentration at 48 h / concentration at 72 h / concentration at 96 h / concentration at 168 h / concentration at 336 h / concentration at 504 h / concentration at 672 h / concentration at 840 h / concentration at 1008 h / concentration at 1344 h / concentration at 1680 h: male, 300 mg/mL in 15% water/85% PEG 300
Method: Formulations containing the compound of Formula (Ia) were prepared as aqueous solutions or oral formulations and administered subcutaneously to rats, dogs, cynomolgus monkey, and/or rhesus monkey.
A solution of the compound of Formula (Ia) in 10% ethanol, 13% water, and 77% PEG 200 (400 mg/mL) was prepared. The solution was administered subcutaneously to dogs at a dose of 12 mg/kg and rats at a dose of 50 mg/kg and the pharmacokinetic (PK) profile was determined. […] In both species, plasma concentrations of the compound of Formula (Ia) were maintained above the target trough concentration of 20 nM (corresponding to an IQ of 5) for at least 84 days (12 weeks).
A solution of the free acid of the compound of Formula (Ia) in 15% water and 85% PEG 300 (300 mg/mL) was prepared. The solution was administered subcutaneously to male Wistar Han rats at a dose level of 50 mg/kg and dose volume of 0.167 mL/kg and the pharmacokinetic (PK) profile was determined.
A 300 mg/ml solution of a compound of Formula (Ia) having 9.8 w/w % water, 65.0 w/w % PEG 300, and 25.2 w/w % of the compound of Formula (Ia) was prepared. The solution was administered subcutaneously to rats at a dose of 50 mg/kg and to dogs at a dose of 12 mg/kg and the pharmacokinetic (PK) profile was determined. […] In the rat, plasma concentrations of the compound of Formula (Ia) were maintained above the target trough concentration of 20 nM for at least 168 days (24 weeks). In the dog, plasma concentrations of the compound of Formula (Ia) were maintained above the target trough concentration of 20 nM for at least 84 days (12 weeks).
(§1) A 150 mg/ml solution of a compound of Formula (Ia) having 27.92 w/w % water, 58.04 w/w % PEG 300, 13.47 w/w % of a compound of Formula (Ia), and 1.1 w/w % NaOH was prepared. The solution was administered subcutaneously to rats at a dose of 50 mg/kg and to dogs at a dose of 12 mg/kg and the pharmacokinetic (PK) profile was determined. […] In the rat, plasma concentrations of the compound of Formula (Ia) were maintained above the target trough concentration of 20 nM for at least 126 days (18 weeks). In the dog, plasma concentrations of the compound of Formula (Ia) were maintained above the target trough concentration of 20 nM for at least 56 days (8 weeks).
as §1, with “300” for “150”, “23.2” for “27.92”, “50.0” for “58.04”, “25.7” for “13.47”
A 50 mg/ml solution of a compound of Formula (Ia) having 30.07 w/w % water, 64.40 w/w % PEG 300, 4.68 w/w % of a sodium salt of the compound of Formula (Ia), and 0.85 w/w % poloxamer 188 was prepared. The solution was administered subcutaneously to rats at a dose of 50 mg/kg and to dogs at a dose of 6 mg/kg and the pharmacokinetic (PK) profile was determined. […] In the rat, plasma concentrations of the compound of Formula (Ia) were maintained above the target trough concentration of 20 nM for at least 28 days (4 weeks). In the dog, plasma concentrations of the compound of Formula (Ia) were maintained above the target trough concentration of 20 nM for at least 14 days (2 weeks).
A 75 mg/ml solution of a compound of Formula (Ia) having 29.21 w/w % water, 62.55 w/w % PEG 300, 6.97 w/w % of a sodium salt of the compound of Formula (Ia), and 1.68 w/w % poloxamer 188 was prepared. The solution was administered subcutaneously to rats at a dose of 50 mg/kg and to dogs at a dose of 6 mg/kg and the pharmacokinetic (PK) profile was determined. […]

[1] = 150 mg/mL solution (w/w %: 27.92 water, 58.04 PEG 300, 13.47 Formula (Ia), 1.1 NaOH), mean ± SD, n=3
[2] = 300 mg/mL solution (w/w %: 21.97 water, 47.05 PEG 300, 25.21 Formula (Ia), 1.08 NaOH, 4.69 poloxamer 188), mean ± SD, n=3
[3] = 400 mg/mL solution in 10% ethanol, 13% water, 77% PEG 200, mean ± SD, n=3

Compound: CC(C)(C#Cc1ccc(-c2ccc(Cl)c3c(NS(C)(=O)=O)nn(CC(F)(F)F)c23)c([C@H](Cc2cc(F)cc(F)c2)NC(=O)Cn2nc(C(F)(F)F)c3c2C(F)(F)[C@@H]2C[C@H]32)n1)S(C)(=O)=O [Formula (Ia), N—((S)-1-(3-(4-chloro-3-(methylsulfonamido)-1-(2,2,2-trifluoroethyl)-1H-indazol-7-yl)-6-(3-methyl-3-(methylsulfonyl)but-1-yn-1-yl)pyridin-2-yl)-2-(3,5-difluorophenyl)ethyl)-2-((3bS,4aR)-5,5-difluoro-3-(trifluoromethyl)-3b,4,4a,5-tetrahydro-1H-cyclopropa[3,4]cyclopenta[1,2-c]pyrazol-1-yl)acetamide]
- Tmax [1]: 18.7 ± 4.04 days
- AUC(0-t) (50 mg/mL solution (w/w %: 30.07 water, 64.40 PEG 300, 4.68 sodium salt of Formula (Ia), 0.85 poloxamer 188), mean ± SD, n=3, read-out: AUC0-7d): 156 ± 48 µM·h
- concentration at 28 d (50 mg/mL solution (w/w %: 30.07 water, 64.40 PEG 300, 4.68 sodium salt of Formula (Ia), 0.85 poloxamer 188), mean ± SD, n=3): 82 ± 35 nM
- concentration at 28 d (75 mg/mL solution (w/w %: 29.21 water, 62.55 PEG 300, 6.97 sodium salt of Formula (Ia), 1.68 poloxamer 188), mean ± SD, n=3): 32.5 ± 18.5 nM
- AUC(0-t) (100 mg/mL solution (w/w %: 28.36 water, 60.73 PEG 300, 9.23 sodium salt of Formula (Ia), 1.68 poloxamer 188), mean ± SD, n=3, read-out: AUC0-7d): 202 ± 27 µM·h
- concentration at 28 d (100 mg/mL solution (w/w %: 28.36 water, 60.73 PEG 300, 9.23 sodium salt of Formula (Ia), 1.68 poloxamer 188), mean ± SD, n=3): 415 ± 98 nM
- concentration at 28 d (125 mg/mL solution (w/w %: 27.51 water, 58.92 PEG 300, 11.48 sodium salt of Formula (Ia), 2.09 poloxamer 188), mean ± SD, n=3): 27.9 ± 26.2 nM
- concentration at 84 d (150 mg/mL solution (w/w %: 26.6 water, 56.97 PEG 300, 13.39 Formula (Ia), 0.57 NaOH, 2.49 poloxamer 188), mean ± SD, n=3): 53.3 ± 45.7 nM
- Cmax [1]: 809 ± 21 nM
- concentration at 98 d [1]: 37 ± 10.7 nM
- Cmax (300 mg/mL solution (w/w %: 9.8 water, 65.0 PEG 300, 25.2 Formula (Ia)), mean ± SD, n=3): 318 ± 146 nM
- concentration at 168 d (300 mg/mL solution (w/w %: 9.8 water, 65.0 PEG 300, 25.2 Formula (Ia)), mean ± SD, n=3, read-out: Cd168): 78.4 ± 13.8 nM
- Cmax [2]: 915 ± 248 nM
- concentration at 98 d [2]: 51.3 ± 36.5 nM
- Cmax (300 mg/mL solution (w/w %: 23.2 water, 50.0 PEG 300, 25.7 Formula (Ia), 1.1 NaOH), mean ± SD, n=3): 355 ± 36 nM
- concentration at 168 d (300 mg/mL solution (w/w %: 23.2 water, 50.0 PEG 300, 25.7 Formula (Ia), 1.1 NaOH), mean ± SD, n=3, read-out: C168d): 12.8 ± 3.5 nM
- AUC(0-t) (400 mg/mL solution in 10% ethanol, 13% water, 77% PEG 200, mean ± SD, n=3, read-out: AUC0-140d): 569 ± 157 µM·h
- concentration at 84 d [3]: 162 ± 30 nM
- Cmax [3]: 283 ± 119 nM
- concentration at 1 h (rat #1): 8.9 nM
- concentration at 3 h (rat #1): 27 nM
- concentration at 8 h (rat #1): 37 nM
- concentration at 24 h (rat #1): 52.6 nM
- concentration at 48 h (rat #1): 69.8 nM
- concentration at 72 h (rat #1): 65.6 nM
- concentration at 96 h (rat #1): 65.5 nM
- concentration at 168 h (rat #1): 143 nM
- concentration at 336 h (rat #1): 258 nM
- concentration at 504 h (rat #1): 327 nM
- concentration at 672 h (rat #1): 333 nM
- concentration at 840 h (rat #1): 322 nM
- concentration at 1008 h (rat #1): 300 nM
- concentration at 1344 h (rat #1): 251 nM
- concentration at 1680 h (rat #1): 202 nM
- concentration at 1 h (rat #2): 11.4 nM
- concentration at 3 h (rat #2): 17.3 nM
- concentration at 8 h (rat #2): 32.8 nM
- concentration at 24 h (rat #2): 49.2 nM
- concentration at 48 h (rat #2): 71.1 nM
- concentration at 72 h (rat #2): 66.9 nM
- concentration at 96 h (rat #2): 76.8 nM
- concentration at 168 h (rat #2): 132 nM
- concentration at 336 h (rat #2): 273 nM
- concentration at 504 h (rat #2): 267 nM
- concentration at 672 h (rat #2): 299 nM
- concentration at 840 h (rat #2): 316 nM
- concentration at 1008 h (rat #2): 258 nM
- concentration at 1344 h (rat #2): 229 nM
- concentration at 1680 h (rat #2): 166 nM
- concentration at 1 h (rat #3): 5.6 nM
- concentration at 3 h (rat #3): 20.1 nM
- concentration at 8 h (rat #3): 26.8 nM
- concentration at 24 h (rat #3): 42.8 nM
- concentration at 48 h (rat #3): 70.8 nM
- concentration at 72 h (rat #3): 70.1 nM
